Laboratory results taken from patent US12617757B2, “Compounds and modules for inhibition of pre-miR-21 and their use in treatment of certain cancers” (University of Florida Research Foundation, Incorporated, priority 2019, dated 2026).
Entries after “also recorded” stand apart in the source; their conditions may differ. Where two headings read alike, the source gives them in different places.

Experiments:
A549 cells = experiment: Boyden chamber invasion assay, A549; format: cell-based; settings: LNA-21 100 nM, 2 1000 nM
Experimental: (§1) Boyden Chamber Invasion Assay. The MDA-MB-231, MDA-LM2, A375, A549, or MCF-10a cells (5×10^4) were seeded into Hanging Cell Culture Inserts for 24 well plates with uncoated membranes with 8.0 μm pores (Millicell) in serum free growth media. A 3 mg/mL layer (100 μL) of Matrigel (Fisher Scientific: CB40234) diluted with serum free growth media was prepared inside of each membrane. Cells were cultured as described above, with or without compound treatment, and allowed to invade towards complete growth media in the bottom well for 16-24 h before ending the experiment by removing the media in the bottom wells and inserts. The hanging cell culture inserts and bottom wells were washed twice with 1×PBS, gently shaking to mix. Excess liquid and cells inside the insert were removed with cotton swabs, after which 400 μL of 4% paraformaldehyde was placed into the bottom well and incubated for 20 min at room temperature to fix the cells. […] Four different fields of view from each captured image were counted for crystal violet stained or unstained cells. Normalized cells invaded was calculated with equation 5 (Eq 5): […]
(§2) where stained cells represent cells counted with crystal violet stain observed in the compound treated or vehicle treated samples, respectively.

pre-miR-21 = experiment: RT-qPCR of mature miR-21 and pre-miR-21 levels in MDA-MB-231 cells; format: cell-based, human; settings: for period over which significantly decreased miR-21 levels were observed after a single dose: Formula 2 1000 nM, Formula 5 50 nM; for effect on mature miR-21 levels / effect on pre-miR-21 levels: MDA-MB-231, RT-qPCR; for effect on pre-miR-21 upon siRNA ablation of RNase L: 5 at 50 nM
Experimental: Cell culture compound treatment and transfection. For treatment with compounds, stocks in DMSO or water were diluted in growth media and added to cells for 24-72 h. For transfection of plasmid DNA to overexpress the miR-21 hairpin precursor in pcDNA3.1 (Addgene 21114) or pcDNA3-RNaseL (R. H. Silverman, Cleveland Clinic^24) in 24-well plates, Lipofectamine 2000 was used according to the manufacturer's protocol. After transfection, the medium was removed and replaced with growth medium containing compound prepared as described above. For transfection of a control (Santa Cruz Biotechnology: sc-37007) or RNase L targeting siRNA (Santa Cruz Biotechnology: sc-45965), Lipofectamine RNAiMAX Reagent was used for transfection of oligonucleotides, including 2′-5′ A4, according to the manufacturer's protocol.

A375 cells = experiment: Boyden chamber invasion assay, A375; format: cell-based; settings: LNA-21 100 nM, 2 1000 nM
Experimental: as §1, §2

PDCD4 = PDCD4 Western blot in MDA-MB-231 cells; format: cell-based, human; settings: for effect on PDCD4 protein levels: Western blotting relative to β-actin
Experimental: PDCD4 Western blot: The MDA-MB-231 cells were grown to ˜60% confluency in 6-well plates. Cells were incubated with compounds diluted in growth media for 48 h. Total protein was extracted using M-PER Mammalian Protein Extraction Reagent (Pierce Biotechnology) supplemented with 1×Protease Inhibitor Cocktail III for Mammalian Cells (Research Products International Corp.) per the manufacturer's protocol. Total protein lysate was quantified using a Micro BCA Protein Assay Kit (Pierce Biotechnology). A 30 μg aliquot of total protein was resolved on a 10% Bis-Tris SDS-polyacrylamide gel, with a 5% stacking layer, and then transferred to a PVDF membrane. The membrane was then blocked in 5% (w/v) nonfat dry milk in 1×TBST for 1 h at room temperature. The membrane was then incubated with 1:2000 rabbit mAb PDCD4 primary antibody (Cell Signaling Technology: D29C6) in 1×TBST containing 5% nonfat dry milk overnight at 4° C. The membrane was washed five times for 5 min each with 1×TBST and then incubated with 1:5000 anti-rabbit IgG horseradish peroxidase secondary antibody conjugate (Cell Signaling Technology: 7074S) in 1×TBST containing 5% nonfat dry milk for 1 h at room temperature. After washing seven times for 5 min each with 1×TBST, protein levels were quantified by chemiluminescence using a SuperSignal West Pico Chemiluminescent Substrate (Pierce Biotechnology) per the manufacturer's recommendations. The membrane was stripped with 1×Stripping Buffer (200 mM glycine, pH 2.2, 1% Tween-20 and 0.1% SDS) two times for 5 min each, followed by washing 3 times in 1×TBST. Then, the membrane was blocked and probed for β-actin following the same procedure described above using 1:5000 mouse β-actin primary antibody (Cell Signaling Technology: 8H10D10). The membrane was washed five times with 1×TBST and incubated with 1:10000 anti-mouse IgG horseradish-peroxidase secondary antibody conjugate (Cell Signaling Technology: 7076S). After washing seven times with 1×TBST for 5 min each, protein levels were quantified as described above. ImageJ software was used to quantify band intensities.

[1] = test system: miR-21 in various cancer cell lines; experiment: RT-qPCR of mature miR-21 in various cancer cell lines; format: cell-based
MDA-MB-231 cells = experiment: Boyden chamber invasion assay, MDA-MB-231; format: cell-based, human; settings: for effect on invasion: MDA-MB-231, LNA-21 100 nM, 2 1000 nM; for effect on invasion upon transient expression of pre-miR-21: MDA-MB-231 + pre-miR-21
Experimental: Boyden Chamber Invasion Assay. The MDA-MB-231, MDA-LM2, A375, A549, or MCF-10a cells (5×10^4) were seeded into Hanging Cell Culture Inserts for 24 well plates with uncoated membranes with 8.0 μm pores (Millicell) in serum free growth media. A 3 mg/mL layer (100 μL) of Matrigel (Fisher Scientific: CB40234) diluted with serum free growth media was prepared inside of each membrane. Cells were cultured as described above, with or without compound treatment, and allowed to invade towards complete growth media in the bottom well for 16-24 h before ending the experiment by removing the media in the bottom wells and inserts. The hanging cell culture inserts and bottom wells were washed twice with 1×PBS, gently shaking to mix. Excess liquid and cells inside the insert were removed with cotton swabs, after which 400 μL of 4% paraformaldehyde was placed into the bottom well and incubated for 20 min at room temperature to fix the cells. The wells and inserts were washed twice with 1×PBS and then treated with 400 μL of 0.1% crystal violet solution for 20 min at room temperature to stain the cells. The wells and inserts were washed twice with water, followed by one wash with 1×PBS. Inserts were dried with cotton swabs to remove extra stain and cells inside the insert, then were air-dried, followed by Brightfield microscopic analysis using a Leica DMI3000 B […] fluorescent microscope. Four different fields of view from each captured image were counted for crystal violet stained or unstained cells. Normalized cells invaded was calculated with equation 5 (Eq 5): […]
as §2

SMILES: CCCN(CC(=O)N(CCC)CC(=O)N(CCC)CC(=O)N(CC(N)=O)Cc1cn(CCCNC(=O)CCCOc2ccc(-c3nc4cc(-c5ccc(N6CCN(C)CC6)cc5)ccc4[nH]3)cc2)nn1)C(=O)CNCc1cn(CCCNC(=O)CCCOc2ccc(-c3nc4cc(-c5ccc(N6CCN(C)CC6)cc5)ccc4[nH]3)cc2)nn1 [Compound 2]
- effect on invasion (A549 cells): decreased the invasive phenotype
- period over which significantly decreased miR-21 levels were observed after a single dose (pre-miR-21; MDA-MB-231): 48 h
- effect on mature miR-21 levels (pre-miR-21): decreased miR-21 levels; also recorded: decreases mature miR-21 levels
- effect on pre-miR-21 levels (pre-miR-21): increased pre-miR-21 levels; also recorded: boosted levels of pre-miR 21
- IC50 (pre-miR-21; MDA-MB-231, read-out: IC50, affecting pre-miR-21 in cells): 1000 nM
- effect on invasion (A375 cells): decreased the invasive phenotype
- increase of PDCD4 levels (PDCD4; 1 μM, MDA-MB-231): ~50%
- effect on PDCD4 protein levels (PDCD4): de-repress levels of PDCD4 protein
- effect on mature miR-21 levels [1]: silenced miR-21
- effect on invasion (MDA-MB-231 cells): decreased the invasive phenotype
- effect on invasion (MDA-MB-231 cells; listed as Formula 2): inhibited the invasive properties of MDA-MB-231

SMILES: CCCN(CC(=O)N(CCC)CC(=O)N(CCC)CC(=O)N(CC(=O)NCCOCCOCCOCCOc1ccc(C=C2SC(Nc3ccccc3)=C(C(=O)OCC)C2=O)cc1O)Cc1cn(CCCNC(=O)CCCOc2ccc(-c3nc4cc(-c5ccc(N6CCN(C)CC6)cc5)ccc4[nH]3)cc2)nn1)C(=O)CN(Cc1cn(CCCNC(=O)CCCOc2ccc(-c3nc4cc(-c5ccc(N6CCN(C)CC6)cc5)ccc4[nH]3)cc2)nn1)C(C)=O [Compound 5]
- effect on invasion (A549 cells; listed as Formula 5): decreased invasiveness
- effect on pre-miR-21 upon siRNA ablation of RNase L (pre-miR-21; MDA-MB-231): diminished effects
- effect on pre-miR-21 upon siRNA ablation of RNase L (pre-miR-21; MDA-MB-231, listed as Formula 5): decreased the ability of Formula 5 to cleave pre-miR-21
- period over which significantly decreased miR-21 levels were observed after a single dose (pre-miR-21; MDA-MB-231): 96 h
- enhanced activity for affecting miR-21 levels over parent 2 (pre-miR-21; MDA-MB-231): 20 fold
- potency of enzymatic cleavage versus bleomycin conjugate of 2 (pre-miR-21; MDA-MB-231): 10 fold
- effect on mature miR-21 levels (pre-miR-21): decreased miR-21 levels
- effect on pre-miR-21 levels (pre-miR-21): decreased pre-miR-21
- effect on pre-miR-21 levels (pre-miR-21; listed as Formula 5): diminished
- IC50 (pre-miR-21; MDA-MB-231, read-out: IC50, affecting miR-21 levels): ~50 nM
- effect on invasion (A375 cells; listed as Formula 5): decreased invasiveness
- effect on PDCD4 protein levels (PDCD4): de-repress levels of PDCD4 protein
- effect on mature miR-21 levels [1]: decreased mature miR-21 levels
- effect on mature miR-21 levels ([1]; listed as Formula 5): significantly inhibited miR-21 levels
- effect on invasion upon transient expression of pre-miR-21 (MDA-MB-231 cells): ablated
- effect on invasion upon transient expression of pre-miR-21 (MDA-MB-231 cells; listed as Formula 5): ablated the inhibitory effect
- effect on invasion (MDA-MB-231 cells): significant decrease of invasion
- effect on invasion (MDA-MB-231 cells; listed as Formula 5): effectively inhibited invasion
